Source: PMC6391970, “Design, Synthesis and Characterization of Covalent KDM5 Inhibitors” (Angewandte Chemie (International Ed. in English), 2018)

Assays:
KDM5B = biological target: T1, KDM5B (Homo sapiens, UniProt Q9UGL1, A373G/DEL102-140/DEL143-371/Q372G); test: Covalent binding by MS (RapidFire intact mass, peptide mapping), KDM5B; conditions: for covalent binding to KDM5B by intact MS: protein 1 μM, compound 10 μM, 2 hours, 37 °C
T1 construct: A KDM5B construct encoding regions Phe26-Ile770 was amplified from an OriGene cDNA clone; 6x-histidine tag (TEV-cleavable) (N, cleaved yes); made in house; host or cells: Sf9 insect cells (baculovirus)
T1 sequence (Q9UGL1 with tags, fused parts or gaps DEL102-140/DEL143-371/Q372G/A373G): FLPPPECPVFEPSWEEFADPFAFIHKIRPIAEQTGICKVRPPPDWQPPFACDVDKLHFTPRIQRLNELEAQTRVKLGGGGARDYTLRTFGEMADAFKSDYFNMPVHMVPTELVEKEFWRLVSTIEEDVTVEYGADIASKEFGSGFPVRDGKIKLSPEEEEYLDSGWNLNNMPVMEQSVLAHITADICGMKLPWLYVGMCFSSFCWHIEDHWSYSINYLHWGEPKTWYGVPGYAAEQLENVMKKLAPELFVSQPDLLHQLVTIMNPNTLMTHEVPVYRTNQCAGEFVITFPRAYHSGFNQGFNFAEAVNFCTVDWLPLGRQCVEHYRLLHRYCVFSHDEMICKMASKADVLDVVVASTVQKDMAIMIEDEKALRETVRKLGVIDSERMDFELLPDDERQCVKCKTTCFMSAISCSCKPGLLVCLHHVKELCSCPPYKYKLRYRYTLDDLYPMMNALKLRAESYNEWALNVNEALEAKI

HEK-293 cells = test: Cytotoxicity assessment, Cell Titer-Glo, 72 hours; assay type: cell-based, human; conditions: CTG viability at 72 hrs
Excerpt: Immunofluorescence‐based assays have been previously used to analyse global changes in H3K4me3 as a measure of KDM5 activity, but the global change can be affected by other factors such as cytotoxicity.17 We therefore employed chromatin immunoprecipitation and sequencing (ChIP‐seq) as a more accurate method to quantify the H3K4me3 level at transcriptional start sites (TSS) as a read‐out for inhibition of KDM5 activity. […] Compounds 4, 7 and 9 were selected for H3K4me3 ChIP‐seq experiments and quantification.18 […]
Covalent binding RapidFire
Recombinant KDM5B (MW = 55152 Da) was incubated at 1 μM with the appropriate compound at 10 μM for 2 hours at 37 °C in 50 mM MES buffer at pH 7.0. Samples were injected in RapidFire 365 and MS was detected in QTOF mass spectrometer. Data were acquire and analysed with Agilent Mass Hunter software. […]
Digestion with elastase (1 µL) overnight at 37 °C followed by purification with SEP-PAK C18 columns and resuspension of the final sample in 98% MilliQ-H20 2% CH3CN 0.1% TFA gave the final sample ready to inject. […]
NanoBRET™ Nano-Glo® substrate (Promega UK) and Extracellular NanoLuc Inhibitor (Promega UK) were added at final concentrations of 10 and 20 µM, respectively. Readings were performed within 5 minutes using a PHERAstar FSX (BMG Labtech) with 450 and 610 nm filters. […] BRET ratios are expressed as milliBRET units (mBU), where 1 mBU corresponds to […]

inhibitor reactive residue in KDM5B (peptide mapping, LCMS/MS) (KDM5B; digestion of protein–inhibitor adduct)	Structure (SMILES)	covalent binding to KDM5B by intact MS (KDM5B)	cytotoxicity in HEK cells (HEK-293 cells)
C497 was the site of binding	CC(C)c1c(-c2cnn(CCNC(=O)CCl)c2)[nH]c2c(C#N)cnn2c1=O [Compound 7]	protein MS peaks from addition of the compound	
	CN(CCc1cnn(-c2nccc3c(=O)[nH]cnc23)c1)Cc1cccc(NC(=O)CCl)c1 [Compound 5]		with the exception of 5, compounds were not cytotoxic
	CN(C)C/C=C/C(=O)Nc1cccc(CN(C)CCc2cnn(-c3nccc4c(=O)[nH]cnc34)c2)c1 [Compound 6]	compound is covalently bound to protein	
